# According to paper PMC11861159, “Design, synthesis, and in vitro, in vivo, and in silico evaluation of novel substituted 1,3,4-thiadiazole derivatives as anticonvulsant agents” (Frontiers in Chemistry, 2025):
# What was measured:
# induced seizures = test: Anticonvulsant screening (MES and sc-PTZ), outcome recovery/death
# MES-induced seizures = test: Maximal electroshock-induced seizure (MES) test; type: in vivo, male Swiss albino mice; settings: for Minimum active dose (mg/kg) MES 0.5 h / Minimum active dose (mg/kg) MES 4 h: oral, lowest dose active in half or more of the mice, n = 6;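 on % protection MES 0.5 h: percent reduction of the test group versus the control group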;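 on % protection MES 4 h: percent reduction of the test group versus the control group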
# PTZ-induced seizures = test: Subcutaneous pentylenetetrazole (sc-PTZ) test; type: in vivo, male Swiss albino mice; settings: for Minimum active dose (mg/kg) Sc-PTZ 0.5 h / Minimum active dose (mg/kg) Sc-PTZ 4 h: oral, lowest dose active in half or more of the mice, n = 6;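 on % protection Sc-PTZ 0.5 h: percent reduction of the test group versus the control group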;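 on % protection Sc-PTZ 4 h: percent reduction of the test group versus the control group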
# mice = test: Rotarod neurotoxicity screening; type: in vivo, male Swiss albino mice; settings: for Neurotoxicity (rotarod test), result in words: at the highest dose (300 mg/kg); for Neurotoxicity dose (mg/kg) 0.5 h / Neurotoxicity dose (mg/kg) 4 h: rotarod, oral doses 30, 100, 300 mg/kg
# Protocol: The rotarod test, as described in the literature, was used to evaluate neurotoxicity (NT) in mice. In brief, six mice (one group) were trained to balance on a spinning rod (3 cm diameter and 6 rpm speed) to familiarize with the rotarod apparatus (Orchid Scientific, India). Each mouse underwent three trials to remain on the rotating rod for over 1 minute, with the experiment’s cutoff time (180 s) remaining constant. Different pre-oral (p.o.) doses of test and standard substances were administered to the trained animals.
# [1] = molecular target: T1, human carbonic anhydrase IX (Homo sapiens, UniProt Q16790); test: Human carbonic anhydrase IX colorimetric (p-nitrophenyl acetate) inhibition assay; type: biochemical; settings: mean ± SEM, three independent experiments in triplicate; read-out: CA IX (IC50)
# T1 construct: purchased Sino Biological Inc, Beijing, China
# Protocol: (§1) In brief, the reaction mixture contained 60 μL of 50 mM Tris-sulfate buffer (pH 7.6, containing 0.1 mM ZnCl2),10 μL (0.5 mM) of the test compound in 1% DMSO, and 10 μL of human carbonic anhydrase II and IX (Sino Biological Inc, Beijing, China). All the ingredients were mixed well and pre-incubated at 25°C for 10 min. Substrate p-nitrophenyl acetate was prepared as a 6 mM stock solution using 5% of acetonitrile in buffer and was used fresh. […] The total assay volume was adjusted to 100 μL and further incubated at 37°C for 30 min. Furthermore, all the ingredients were mixed properly, and absorbance was measured. […] The results reported are the mean of triplicate experiments (±SEM) and expressed IC50 values, which were calculated.
# [2] = molecular target: T2, human carbonic anhydrase II (Homo sapiens, UniProt P00918); test: Human carbonic anhydrase II colorimetric (p-nitrophenyl acetate) inhibition assay; type: biochemical; settings: mean ± SEM, three independent experiments in triplicate; read-out: CA II (IC50)
# T2 construct: purchased Sino Biological Inc, Beijing, China
# Protocol: as §1
SMILES,Recovery/death (induced seizures; 100 mg/kg oral),% protection MES 0.5 h (MES-induced seizures; 100 mg/kg oral),% protection MES 4 h (MES-induced seizures; 100 mg/kg oral),Minimum active dose (mg/kg) MES 0.5 h (MES-induced seizures),Minimum active dose (mg/kg) MES 4 h (MES-induced seizures),% protection Sc-PTZ 0.5 h (PTZ-induced seizures; 100 mg/kg oral),Minimum active dose (mg/kg) Sc-PTZ 0.5 h (PTZ-induced seizures),Minimum active dose (mg/kg) Sc-PTZ 4 h (PTZ-induced seizures),Neurotoxicity dose (mg/kg) 0.5 h (mice),Neurotoxicity dose (mg/kg) 4 h (mice),Recovery/death (induced seizures; 30 mg/kg oral),Recovery/death (induced seizures; 300 mg/kg oral),% protection MES 0.5 h (MES-induced seizures; 300 mg/kg oral),% protection MES 4 h (MES-induced seizures; 300 mg/kg oral),IC50 [1],% protection Sc-PTZ 4 h (PTZ-induced seizures; 300 mg/kg oral),% protection Sc-PTZ 0.5 h (PTZ-induced seizures; 300 mg/kg oral),IC50 [2],other results
"CC(=O)Nc1nnc(S(N)(=O)=O)s1 [Acetazolamide, reference compound]",Recovery,66.15%,58.46%,100 mg/kg,100 mg/kg,73.13%,100 mg/kg,100 mg/kg,- (The indication - (dash) denotes a lack of action at the maximum dose supplied (300 mg/kg)),- (The indication - (dash) denotes a lack of action at the maximum dose supplied (300 mg/kg)),,,,,,,,,"% protection Sc-PTZ 4 h (PTZ-induced seizures; 100 mg/kg oral): 58.46%; Neurotoxicity (rotarod test), result in words (mice): no neurotoxicity"
"O=C(Nc1nncs1)c1cccc(OCCN2CCOCC2)c1 [Compound 6a, 3-(2-morpholinoethoxy)-N-(1,3,4-thiadiazol-2-yl)benzamide]",Recovery,18.46%,,100 mg/kg,300 mg/kg,,- (The indication - (dash) denotes a lack of action at the maximum dose supplied (300 mg/kg)),300 mg/kg,- (The indication - (dash) denotes a lack of action at the maximum dose supplied (300 mg/kg)),- (The indication - (dash) denotes a lack of action at the maximum dose supplied (300 mg/kg)),Recovery,Recovery,30.76%,43.07%,400 ± 50 nM,19.08%,,,
"O=C(Nc1nncs1)c1cccc(OCCN2CCCCC2)c1 [Compound 6b, 3-(2-(piperidin-1-yl)ethoxy)-N-(1,3,4-thiadiazol-2-yl)benzamide]",Recovery,30.76%,,100 mg/kg,300 mg/kg,,300 mg/kg,300 mg/kg,- (The indication - (dash) denotes a lack of action at the maximum dose supplied (300 mg/kg)),- (The indication - (dash) denotes a lack of action at the maximum dose supplied (300 mg/kg)),Recovery,Recovery,41.53%,50.76%,230 ± 40 nM,34.17%,10.20%,,
"O=C(Nc1nncs1)c1cccc(OCCN2CCCC2)c1 [Compound 6c, 3-(2-(pyrrolidin-1-yl)ethoxy)-N-(1,3,4-thiadiazol-2-yl)benzamide]",Recovery,26.15%,35.38%,100 mg/kg,100 mg/kg,33.81%,100 mg/kg,300 mg/kg,- (The indication - (dash) denotes a lack of action at the maximum dose supplied (300 mg/kg)),- (The indication - (dash) denotes a lack of action at the maximum dose supplied (300 mg/kg)),Recovery,Recovery,38.46%,46.13%,470 ± 20 nM,40.21%,29.26%,,
"CN(C)CCOc1cccc(C(=O)Nc2nncs2)c1 [Compound 6e, 3-(2-(dimethylamino)ethoxy)-N-(1,3,4-thiadiazol-2-yl)benzamide]",Recovery,32.3%,55.38%,30 mg/kg,100 mg/kg,32.39%,30 mg/kg,100 mg/kg,- (The indication - (dash) denotes a lack of action at the maximum dose supplied (300 mg/kg)),- (The indication - (dash) denotes a lack of action at the maximum dose supplied (300 mg/kg)),Recovery,Recovery,46.15%,73.83%,210 ± 40 nM,74.2%,46.55%,230 ± 20 nM,% protection MES 0.5 h (MES-induced seizures; 30 mg/kg oral): 38.46%; % protection Sc-PTZ 0.5 h (PTZ-induced seizures; 30 mg/kg oral): 39.02%; % protection Sc-PTZ 4 h (PTZ-induced seizures; 100 mg/kg oral): 63.58%
"COc1ccc(C(=O)Nc2nncs2)cc1OCCN1CCOCC1 [Compound 7a, 4-Methoxy-3-(2-morpholinoethoxy)-N-(1,3,4-thiadiazol-2-yl)benzamide]",Recovery,16.92%,,100 mg/kg,300 mg/kg,,300 mg/kg,300 mg/kg,,,Recovery,Recovery,,40%,880 ± 40 nM,15.38%,16.64%,970 ± 50 nM,
"COc1ccc(C(=O)Nc2nncs2)cc1OCCN1CCCCC1 [Compound 7b, 4-Methoxy-3-(2-(piperidin-1-yl)ethoxy)-N-(1,3,4-thiadiazol-2-yl)benzamide]",Recovery,29.23%,,100 mg/kg,300 mg/kg,,300 mg/kg,300 mg/kg,,,Recovery,Recovery,,47.69%,730 ± 20 nM,32.21%,23.07%,740 ± 30 nM,
"COc1ccc(C(=O)Nc2nncs2)cc1OCCN1CCCC1 [Compound 7c, 4-Methoxy-3-(2-(pyrrolidin-1-yl)ethoxy)-N-(1,3,4-thiadiazol-2-yl)benzamide]",Recovery,24.61%,32.30%,100 mg/kg,100 mg/kg,,300 mg/kg,300 mg/kg,- (The indication - (dash) denotes a lack of action at the maximum dose supplied (300 mg/kg)),- (The indication - (dash) denotes a lack of action at the maximum dose supplied (300 mg/kg)),Recovery,Recovery,35.38%,49.23%,640 ± 40 nM,36.75%,35.38%,690 ± 20 nM,
"CCCC(CCC)C(=O)O [Sodium valproate, reference compound]",,,,300 mg/kg,300 mg/kg,,300 mg/kg,300 mg/kg,- (The indication - (dash) denotes a lack of action at the maximum dose supplied (300 mg/kg)),- (The indication - (dash) denotes a lack of action at the maximum dose supplied (300 mg/kg)),,Recovery,72.30%,63.07%,,63.03%,77.72%,,"Neurotoxicity (rotarod test), result in words (mice): no neurotoxicity"
